Publication PMC5486114, “Interactions between a Heparin Trisaccharide Library and FGF-1 Analyzed by NMR Methods” (International Journal of Molecular Sciences, 2017)
Read-outs that look alike come from different tables or passages of the source.

Experiments:
Human recombinant FGF-1 [1] = biological target: T1, Human recombinant FGF-1 (Homo sapiens, UniProt P05230); assay: STD-NMR initial growth rates (STD0) of trisaccharides in presence of FGF-1; assay type: binding; conditions: for STD0 H1-C: anomeric proton of ring C, 600 MHz, 289 K, protein 19 µM, ligand 1.6 mM; for Relative STD0 H1-A / Relative STD0 H1-B / Relative STD0 H1-C: relative to largest anomeric STD0 of the compound (=100)
T1 construct: Human recombinant FGF-1 consisting of 141 residues; purchased Peprotech; host or cells: E. coli
T1 sequence (P05230 with tags, fused parts or gaps limits assumed): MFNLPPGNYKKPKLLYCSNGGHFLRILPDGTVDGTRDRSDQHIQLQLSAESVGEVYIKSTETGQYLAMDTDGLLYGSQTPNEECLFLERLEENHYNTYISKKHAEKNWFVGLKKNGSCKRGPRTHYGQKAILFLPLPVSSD
Source text: STD-NMR [30] studies were acquired for all the trisaccharides in the library in presence of FGF-1 using the same experimental conditions (see material and methods). Transference of saturation for all trisaccharides probed the interaction with the protein. Nevertheless, in contrast to the case of Langerin interaction, the results differed between the different compounds, indicating the existence of some differences in binding. Unfortunately, the spectral crowding only allowed us to accurately integrate the three anomeric signals along the saturation times, see Figure 3. Using a methodology previously described for disconnect the effect from proton relaxation on the STD values at a given time, the values of the initial rate of growth of STD (STD0) for the considered signals were obtained for the signals under consideration (Figure 4, Table 1). The distribution of magnetization along the trisaccharide chain is rather homogeneous, and is compatible with an extended interaction along the positive cleft of FGF-1, where the main binding site is located.
STD-NMR Experiments. All the samples were prepared in 250 μL 5 mM phostate buffer at pH 6.0 and 100 mM NaCl in 99.9% D2O. The concentration of the protein was 19 µM, and the ligand was 1.6 mM. The ratio between the protein and ligand was 1:84. The experiments were performed at 289 K. STD-NMR experiments were carried out with spin-lock to suppress protein signals. Moreover, we tried to suppress the solvent using excitation sculpting with gradients, and we used a shaped pulse train for saturation, alternating between on and off resonance. The on-resonance and off-resonance frequencies were set to 0.7 and 40 ppm, respectively. A spoil sequence was used to destroy unwanted magnetization. The saturation times were 0.5, 1, 2, 3 and 4 s, with an additional delay set to 3.6, 3.1, 2.1, 1.1 and 0.1, respectively, in order to keep the relaxation delay constant at […] for all experiments. STD NMR experiments were performed with 2048 scans with a total experimental time for every point of 5 h.
The STD initial rates (STD0) were calculated from the curve of STD vs. saturation time. To do so, we utilized the equation: STD0(t) = a [1 − exp (−bt)], where a represents the asymptotic maximum of the STD build-up curve (STDmax), b is a rate constant that depends on the relaxation properties of a given proton that measures the rate of the STD build-up (Ksat), and t is the saturation time (tsat). The STD0 values were obtained as the product of the ab coefficients.

Human recombinant FGF-1 [2] = biological target: T1, Human recombinant FGF-1; assay: IC50 by selective T1 (T1sel) NMR at different ligand concentrations; assay type: binding; conditions: T1sel method; 20 μM protein, ligand 80-640 μM
Procedure: (§1) IC50 values using STD-NMR were calculated for compound 1 at different concentrations based on the initial rates of the affinity factor method (Figure 5). […] In this case, due to the electrostatic nature of the complex, the gap between the protein and the ligand protons is very large, yielding low magnetization transfer values. On other hand, the small binding constant implies a large consumption of trisaccharide due to the high concentration needed to complete a meaningful titration curve. This, together with the large amount of time needed to record the full series of experiments, forced us to consider another method for the estimation of the IC50. Thus, we explored the IC50 calculation using selective T1 at different concentrations (Figure 6). Nevertheless, they are in agreement with the values obtained by Yu-Peng et al., when performing the same measure with disaccharides and FGF-2 by ITC [18].
Selective T1 NMR experiments. The samples were prepared using the same buffer at 20 μM protein concentration, while ligand concentration was 80, 160, 320, 480 and 640 μM. The ratios between protein and ligand were then 1:4, 1:8, 1:16, 1:24 and 1:32, respectively. We carry out studies on ^1H longitudinal relaxation rate (1/T1(sel). The relaxation times were measured by inversion recovery pulse sequence.
To determine the IC50, we adjusted the experimental values of the intensity signals vs. recovery delays to obtain an exponential function. We obtained the selective T1 value by f(t) = I0 × [1 − a × exp (−t/T1)]. In a ligand-receptor system where the ligand is present in large excess over the receptor binding sites, the ligand relaxation rate is describe by 1/T1obs = 1/T1free + fbound/(T1bound + tbound), where fbound is the fraction bound ([PL]/[L]) and τbound is the lifetime of the bound state. The relationship between total ligand concentration and T1 is then [P]0T1obs = ([L]0 + IC50)(T1bound + τbound), and a plot of [P]0 T1obs versus [L]0 gives a straight line with IC50 obtained from the intercept of the x axis.

Human recombinant FGF-1 [3] = biological target: T1, Human recombinant FGF-1; assay: STD-NMR initial growth rates (STD0) of trisaccharides in presence of FGF-1; assay type: binding; conditions: 600 MHz, 289 K, protein 19 µM, ligand 1.6 mM; for STD0 H1-A: anomeric proton of ring A; for STD0 H1-B: anomeric proton of ring B
Human recombinant FGF-1 [4] = biological target: T1, Human recombinant FGF-1; assay: IC50 by STD-NMR, initial rates of the STD affinity factor (STD0-AF); assay type: binding; conditions: 600 MHz, 298 K; authors do not support validity of the result; read-out: IC50 (STD-NMR, STD0-AF method)
Procedure: as §1
STD-NMR Experiments. […]
IC50 was obtained using the initial rates of the STD affinity factor approximation. The STD-AF initial slopes (STD-AF0) were calculated as before from the curve of STD-AF vs. saturation time at several ligand concentrations. From these initial slopes, the binding isotherm was built (STD-AF0 vs. ligand concentration), and the curve fitted to a Langmuir equation, from which the IC50 value was determined.

[5] = biological target: WGA (Wheat Germen Agglutinin); assay: T1sel validation assay: binding of GlcNAc to WGA; conditions: T1sel method; lectin 20 uM; preliminary assay
Procedure: page 7: Calculation of Binding Constants using T1sel. We have used the T1sel method for the evaluation of the KD binding. In order to assess the validity of the method we performed a preliminary assay using the known system of the binding of GlcNAc to WGA (Wheat […] Agglutinin) using a concentration of lectin of 20 uM. […] T1sel method is described in the experimental section of the main paper. (1 picture or pasted object on this page, not shown here)

[6] = biological target: WGA (Wheat Germen Agglutinin); conditions: reported value, no reference given; cited from earlier work

Structure (SMILES) | STD0 H1-C (Human recombinant FGF-1 [1]) | Relative STD0 H1-A (Human recombinant FGF-1 [1]) | Relative STD0 H1-B (Human recombinant FGF-1 [1]) | Relative STD0 H1-C (Human recombinant FGF-1 [1]) | IC50 (Human recombinant FGF-1 [2]) | STD0 H1-A (Human recombinant FGF-1 [3]) | STD0 H1-B (Human recombinant FGF-1 [3]) | IC50 (Human recombinant FGF-1 [4]) | Kd [5] | Kd [6]
CC(=O)N[C@H]1[C@@H](OC(C)C)O[C@H](COS(=O)(=O)O)[C@@H](O[C@@H]2O[C@@H](C(=O)O)[C@@H](O[C@H]3O[C@H](COS(=O)(=O)O)[C@@H](O)[C@H](O)[C@H]3NS(=O)(=O)O)[C@H](O)[C@H]2OS(=O)(=O)O)[C@@H]1O [Compound 2] | 0.24 | 31 | 100 | 68 | 26.1 ± 0.7 µM | 0.11 | 0.36 | – | – | –
CC(C)O[C@H]1O[C@H](COS(=O)(=O)O)[C@@H](O[C@@H]2O[C@@H](C(=O)O)[C@@H](O[C@H]3O[C@H](CO)[C@@H](O)[C@H](O)[C@H]3NS(=O)(=O)O)[C@H](O)[C@H]2OS(=O)(=O)O)[C@H](O)[C@H]1NS(=O)(=O)O [Compound 3] | 0.20 | 72 | 100 | 88 | 15.4 ± 0.4 µM | 0.17 | 0.23 | – | – | –
CC(=O)N[C@H]1[C@@H](OC(C)C)O[C@H](COS(=O)(=O)O)[C@@H](O[C@@H]2O[C@@H](C(=O)O)[C@@H](O[C@H]3O[C@H](CO)[C@@H](O)[C@H](O)[C@H]3NS(=O)(=O)O)[C@H](O)[C@H]2OS(=O)(=O)O)[C@@H]1O [Compound 4] | 0.24 | 67 | 100 | 94 | 84.7 ± 0.4 µM | 0.17 | 0.25 | 1700 µM | – | –
CC(C)O[C@H]1O[C@H](COS(=O)(=O)O)[C@@H](O[C@@H]2O[C@@H](C(=O)O)[C@@H](O[C@H]3O[C@H](COS(=O)(=O)O)[C@@H](O)[C@H](O)[C@H]3NS(=O)(=O)O)[C@H](O)[C@H]2OS(=O)(=O)O)[C@H](O)[C@H]1NS(=O)(=O)O [Compound 1] | 0.42 | 66 | 80 | 100 | 49.2 ± 0.3 µM | 0.28 | 0.34 | 1700 ± 10 µM | – | –
CC(C)O[C@H]1O[C@H](CO)[C@@H](O[C@@H]2O[C@@H](C(=O)O)[C@@H](O[C@H]3O[C@H](COS(=O)(=O)O)[C@@H](O)[C@H](O)[C@H]3NS(=O)(=O)O)[C@H](O)[C@H]2OS(=O)(=O)O)[C@H](O)[C@H]1NS(=O)(=O)O [Compound 5] | 0.06 | 100 | 82 | 87 | 50.6 ± 0.1 µM | 0.07 | 0.06 | – | – | –

More lines, main results first:

STD0 H1-C (Human recombinant FGF-1 [1]) | Relative STD0 H1-A (Human recombinant FGF-1 [1]) | Relative STD0 H1-B (Human recombinant FGF-1 [1]) | Relative STD0 H1-C (Human recombinant FGF-1 [1]) | IC50 (Human recombinant FGF-1 [2]) | STD0 H1-A (Human recombinant FGF-1 [3]) | STD0 H1-B (Human recombinant FGF-1 [3]) | IC50 (Human recombinant FGF-1 [4]) | Kd [5] | Structure (SMILES) | Kd [6]
0.11 | 100 | 48 | 64 | 46.7 ± 0.9 µM | 0.18 | 0.08 | – | – | CC(C)O[C@H]1O[C@H](CO)[C@@H](O[C@@H]2O[C@@H](C(=O)O)[C@@H](O[C@H]3O[C@H](CO)[C@@H](O)[C@H](O)[C@H]3NS(=O)(=O)O)[C@H](O)[C@H]2OS(=O)(=O)O)[C@H](O)[C@H]1NS(=O)(=O)O [Compound 7] | –
0.12 | 62 | 100 | 94 | 181 ± 5.5 µM | 0.08 | 0.12 | – | – | CC(=O)N[C@H]1[C@@H](OC(C)C)O[C@H](CO)[C@@H](O[C@@H]2O[C@@H](C(=O)O)[C@@H](O[C@H]3O[C@H](COS(=O)(=O)O)[C@@H](O)[C@H](O)[C@H]3NS(=O)(=O)O)[C@H](O)[C@H]2OS(=O)(=O)O)[C@@H]1O [Compound 6] | –
– | – | – | – | – | – | – | – | 2100 µM | CC(=O)N[C@H]1C(O)O[C@H](CO)[C@@H](O)[C@@H]1O (stereo partly shown) [GlcNAc] | 2500 µM
0.19 | – | 99 | 100 | 132 ± 1.8 µM | – | 0.18 | – | – | CC(=O)N[C@H]1[C@@H](OC(C)C)O[C@H](CO)[C@@H](O[C@@H]2O[C@@H](C(=O)O)[C@@H](O[C@H]3O[C@H](CO)[C@@H](O)[C@H](O)[C@H]3NS(=O)(=O)O)[C@H](O)[C@H]2OS(=O)(=O)O)[C@@H]1O [Compound 8] | –
